We go through 1 substance from patent US20100047227A1, “NOVEL ANTICANCER CATHEPSIN FORMULATIONS AND ANTICANCER AGENT FOR USE IN COMBINED ANTICANCER THERAPY” (priority 2006, published 2010).

The subject of test [1] is human prostate cancer ALVA-41 cells. The test is described as follows: measurement for apoptosis (morphology, annexin V staining, TUNEL assay), ALVA-41 cells. Format: cell-based. The conditions noted are these: ALVA-41 cells. As to the method: The cells were measured for a morphological variation of apoptosis by phase contrast microscopy. The cells of prophase and post-phase apoptosis were detected by annexin V staining and TUNEL assay. In order to carry out the annexin V staining of ALVA-41 cells, the cells were exposed to cathepsin E or cathepsin L for 4 hours and centrifuged. After centrifugation, the separated cells were washed twice with PBS and incubated with fluorescein isothiocyanate-conjugated annexin V for 10 minutes at room temperature in a dark place. The cells that were positive as a result of the annexin V staining were then detected with fluorescence microscope. The TUNEL assay was carried out for the incubated tumor cells using Apop Tag Peroxidase Apoptosis Detection Kit and for heterografts using Tumor TACS In Situ Apoptosis Detection Kit.
In the figure, an indicating bar scale represents 50 μm. […] In the figure, an indicating bar scale represents 50 μm.

A further test deals with TRAIL. The experiment in a line: ELISA of TRAIL in culture supernatant of ALVA-41 cells. Format: cell-based, human. The following applies: ALVA-41 cells treated with cathepsin E 100 μg/ml, 20 hours. On the procedure:
(§1) ALVA-41 cells (1×10^6 cells per a 6-cm dish) were incubated together with cathepsin E (100 μg/ml) in a non-serum culture medium Opti-MEM at 37° C. for 20 hours. The resulting culture supernatant was measured for amounts of TRAIL, FasL and TNF-α with ELSA kit in a manner as will be described briefly. A sample and a standard product (each 100 μl) were added to a microtiter plate immobilized with a monoclonal antibody to the corresponding member of the TNF family and incubated at room temperature for 2 hours. Then, the wells of the microtiter plate were washed four times with a washing buffer and 100 μl of biotin-conjugated monoclonal antibody was added to each wells of the plate, following by incubation at room temperature for 1 hour and washing the wells of the plate completely. Then, they were incubated together with 100 μl of streptoavidin-conjugated horseradish peroxidase at room temperature for 30 minutes and washed four times with a washing buffer. […] After an addition of a reaction terminating solution, the wells were measured at 450 nm with microreader.
(§2) In this experiment, the ALVA-41 cells were treated with cathepsin E (100 μg/ml) or physiological saline at 37° C. and pH 7.4 for 20 hours and measured for the amounts of TNF-α, FasL and TRAIL in the culture supernatant by ELSA. […] Apoptosis of the ALVA-41 cells was measured using the culture supernatant after immunoprecipitation. […]
A general note: An ELISA detects its analyte on a solid surface through an enzyme-linked reagent.

The subject of another test is FasL. The experiment in a line: ELISA of FasL in culture supernatant of ALVA-41 cells. Format: cell-based, human. The conditions noted are these: ALVA-41 cells treated with cathepsin E 100 μg/ml, 20 hours. On the procedure: as §1, §2
Test [2] relates to human prostate epithelium (PrE) cells. The experiment in a line: cell survival rate of normal human prostate epithelial cells. Type of test: cell-based. The conditions noted are these: 100 μg/ml, 37° C., pH 7.4, 20 hours. On the procedure: (§3) The survival rate of cells was measured by Cell Counting Kit-8 in accordance with a manufacturer's manual. The method will be described briefly as follows. A 96-well (each 100 μl) plate was inoculated with cells (1×10^4 cells) and incubated for 24 hours, and the cells were incubated in a non-serum culture medium Opti-MEM together with a given concentration of each cathepsin purified from rat stomach (References #27 and #60-#62). Thereafter, the kit reagent (10 μl) was added to each well and the wells were incubated for another 1 hour. After incubation, each well was measured at the absorbance of 450 nm with a microplate reader.
In this assay, the cells to be tested were incubated to a ˜80% confluent state and then together with cathepsin E (100 μg/ml) or physiological saline at 37° C. and pH 7.4 for 20 hours, followed by measurements for the cell survival rate by a colorimetric assay. The cell survival rate is represented as a percentage of a corresponding value to the cells treated with physiological saline, and the data is represented as an average value±SD from the data obtained by four separate experiments. […] As an alternative method, a culture medium of each cell line was immunoblot-analyzed using an anti-OPG antibody. […] Thereafter, the immunoblot was analyzed for its concentration in order to determine a quantity of a soluble TRAIL trimer. […]

The subject of test [3] is various human prostate cancer cell lines. The experiment in a line: sensitivity of human prostate cancer cell lines to cathepsin E-induced apoptosis. Format: cell-based. On the procedure:
as §3
In this assay, the cells to be tested were incubated to a ˜80% confluent state and then together with cathepsin E (100 μg/ml) or physiological saline at 37° C. and pH 7.4 for 20 hours, followed by measurements for the cell survival rate by a colorimetric assay. The cell survival rate is represented as a percentage of a corresponding value to the cells treated with physiological saline, and the data is represented as an average value±SD from the data obtained by four separate experiments. In this value, *p<0.001 represents a corresponding value to the cells treated with physiological saline. […] In this experiment, the cells were biotinylated with sulfo-NHS-SS-biotin as a […], decomposable reagent and lyzed, and the resulting cell lysate was incubated with streptoavidin-agarose beads at 4° C. for 2 hours. After the beads were washed, the related proteins were subjected to an immunoblot analysis using an anti-TRAIL antibody or an antibody to a TRAIL membrane-related receptor. The cell lysate portion was also subjected to a direct immunoblot analysis using an anti-β-actin antibody. As an alternative method, a culture medium of each cell line was immunoblot-analyzed using an anti-OPG antibody. […] Thereafter, the immunoblot was analyzed for its concentration in order to determine a quantity of a soluble TRAIL trimer. […]

Turning to cathepsin E, the “staining with annexin V and TUNEL reagent” value in test [1] (50 μg/ml) was “positive”. In addition, the “morphological changes of treated cells” value in test [1] (microscopy, 100 μg/ml) was “morphological features of apoptosis”. For the same substance, the “TRAIL in culture supernatant” value in the test on TRAIL is on record as “apparently secreted”. The “FasL in culture supernatant” value in the test on FasL was “little detected”. Also, the “influence upon survival and morphology of normal PrE cells” value in test [2] was “little exerted influences upon the survival and morphology”. For the same substance, the “induction of apoptosis in human prostate cancer cell lines” value in test [3] (100 μg/ml, 37° C., pH 7.4, 20 hours) is reported as “induced apoptosis for all cells”. Moreover, the “sensitivity as to cell survival effect, PC-3 cells relative to PPC-1 cells” value in test [3] (PC-3 versus PPC-1) is listed as “approximately 20 times”. Moreover, the “order of increasing sensitivity of cell lines to cathepsin E-induced apoptosis” value in test [3] (PPC-1, DU145, ALVA-41, PC-3) is reported as “PPC-1<DU145≦ALVA-41<PC-3”.
